According to US20220089600A1, “TGFß INHIBITOR AND PRODRUGS” (FUNDACIÓ INSTITUT DE RECERCA BIOMÈDICA (IRB BARCELONA), priority 2018, published 2022):
Values belong to the compound of their own block, whether it stands above or below them.

Assays:
[1] = tested on: NTCF4-ER^T2 fusion protein in LS174T cells; experiment: Co-culture LS174T-NTCF4-ER^T2 gene expression assay; assay type: cell-based; settings: 16h
Procedure: These LS-NE cells were cultured in DMEM supplemented with L-glutamine and 10% fetal bovine serum (Life Technologies) at 37° C. and 5% CO2.
HEK293T cells transduced with pLenti PGK-LigF (puro) or with an equivalent empty vector were co-plated with LS174T-NTCF4-ER^T2 (LS-NE) cells, in a ratio of 1/10 in 6-well plates. Co-cultures were treated with DMSO, 1 μM Z-4-OHT or the prodrug of formula VII at 1 or 10 μM. After 16h, cells were lysed in trizol for RNA extraction (PureLink RNA Mini Kit, Life Technologies) and cDNA preparation (High Capacity cDNA RT kit, Applied Biosysytems). […] Data in FIG. 11 were normalized to the housekeeping gene, and to DMSO controls. Data are the average of technical replicates (+SD) from a single experiment.

[2] = molecular target: T1, Cre-ER^T2 fusion protein in MEFs (Homo sapiens, UniProt P03372, G400V/L544A/M543A/V595A); experiment: Co-culture MEF recombination assay (mTmG reporter, FACS); assay type: cell-based, mouse
T1 construct: Cre recombinase (fusion partner); host or cells: mouse embryonic fibroblasts from UbC-Cre-ER^T2; mTmG transgenic mice; the other entry of the earlier key: cre (P06956, Recombinase cre)
T1 sequence (P03372 with tags, fused parts or gaps G400V/M543A/L544A/V595A): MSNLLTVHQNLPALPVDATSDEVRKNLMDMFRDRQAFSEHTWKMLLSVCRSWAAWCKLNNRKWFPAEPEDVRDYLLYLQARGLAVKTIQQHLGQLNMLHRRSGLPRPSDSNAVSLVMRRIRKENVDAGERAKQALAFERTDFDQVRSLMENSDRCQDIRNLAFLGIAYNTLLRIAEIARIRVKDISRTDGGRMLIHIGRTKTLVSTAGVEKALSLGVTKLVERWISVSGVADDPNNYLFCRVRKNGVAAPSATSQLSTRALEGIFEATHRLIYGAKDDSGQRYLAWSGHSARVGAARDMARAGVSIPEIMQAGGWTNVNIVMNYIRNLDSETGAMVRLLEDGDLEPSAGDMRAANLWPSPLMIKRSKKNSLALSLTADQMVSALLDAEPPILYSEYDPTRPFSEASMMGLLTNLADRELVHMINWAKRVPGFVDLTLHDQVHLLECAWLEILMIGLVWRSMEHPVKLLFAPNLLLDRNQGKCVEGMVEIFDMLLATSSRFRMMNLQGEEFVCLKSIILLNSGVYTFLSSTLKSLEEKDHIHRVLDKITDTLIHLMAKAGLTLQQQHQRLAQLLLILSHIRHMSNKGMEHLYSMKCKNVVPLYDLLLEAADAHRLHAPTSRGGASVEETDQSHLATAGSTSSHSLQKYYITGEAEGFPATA
Source text: The mouse model carries recombination reporter mTmG (JAX stock: 007676). This system expresses the membrane bound tdTomato (tandem dimer tomato; mT stands for membrane Tomato), which is a red fluorescent protein. Upon recombination with an activated Cre enzyme, the coding sequence for mT as well as a stop codon, being between loxP sites, is excised. […] Effectively this means that in the presence of a Cre enzyme, or in the presence of a 4-OHT activated Cre-ER^T2 fusion protein, the cells stop their production of tdTomato and proceed to express the EGFP; this genetic switch can be efficiently quantified by flow cytometry analysis. The mouse strain expressing mTmG was then crossed to a mouse carrying a Cre-ER^T2 fusion protein in all cells (UbC-Cre-ER^T2; Jax Stock: 008085). From the dual transgenic mouse, as well as from the reporter strain without Cre-ER^T2, MEFs were harvested from 14-day-old embryos. Briefly, pregnant females were sacrificed 14 days after plug formation, uteri were removed, and embryos were dissected: heads and fetal livers were discarded. The rest was minced and digested with trypsin and grown in 10-cm plates with aforementioned supplemented DMEM.
MEF recombination: MTO129, transduced with pLenti PGK-LigF (puro) or with an equivalent empty vector was trypsinized and single cells added onto UbC-Cre-ER^T2; mTmG (or control mTmG-only) MEFs grown in 12-well plates. The next day, either Z-4-OHT or the prodrug of formula VII was added in concentrations ranging from 1000 to 1 nM. Two days later, cells were trypsinized and analyzed by flow cytometry for TdTomato/EGFP fluorescence (Gallios, Beckman Coulter). Fluorescence was analyzed on viable cells in 2 dimensions and scored as percentages in the 4 quadrants. EGFP positive quadrants (Q2 and Q4, with or without TdTomato) were considered recombined and the fraction of the total was calculated. Data are the average (+SD) from two independent experiments.

LigF = molecular target: T2, LigF (Sphingobium sp., UniProt P30347); experiment: In vitro LigF cleavage of prodrug, HPLC-MS/MS; assay type: biochemical, Sphingobium sp. strain SYK-6; settings: 37° C.
T2 construct: made in house; host or cells: E. coli BL21 (DE3) Rosetta lysS
T2 sequence (P30347 1-257): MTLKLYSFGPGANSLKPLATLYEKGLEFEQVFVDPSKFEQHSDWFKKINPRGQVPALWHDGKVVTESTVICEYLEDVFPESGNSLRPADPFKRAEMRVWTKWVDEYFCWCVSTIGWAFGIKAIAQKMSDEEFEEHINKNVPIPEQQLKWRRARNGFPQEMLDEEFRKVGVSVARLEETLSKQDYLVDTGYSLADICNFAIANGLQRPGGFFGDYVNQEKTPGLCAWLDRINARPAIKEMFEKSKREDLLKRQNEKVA
Procedure: Similar to the in vitro assay in 5.2., the compound of formula VII was diluted from a 30 mM stock solution in DMSO to 50 μM in 20 mM Tris-HCl (pH 7.5), 1 mM glutathione and 15 μg/ml LigF was added. However, the reaction mixture was incubated at 37° C. and the read-out was different: using HPLC-MS/MS. Reaction samples, as well as a control sample without enzyme and Z-4-OHT (4-hydroxytamoxifen) as a standard were diluted 2:3 in MeOH and 2 μl was injected onto a BioBasic C18 column (5 μm, 2.1×150 mm, Thermo; using a Thermo EC Finnigan Mod Micro AS autosamples and Thermo EC Quarternary pump, Finnigan Mod. Surveyor MS chromatograph) with a water-MeOH gradient (60-90% MeOH in 30 min; 90-100% in 5 min; 100 μl/min flow rate). LC-MS coupling was performed with the Advion Triversa Nanomate (Advion BioSciences, Ithaca, N.Y., USA) as the nanoESI source performing nanoelectrospray through chip technology. The Nanomate was attached to an LTQ-FT Ultra mass spectrometer and operated at a spray voltage of 1.7 kV and a delivery pressure of 0.5 psi in positive mode. In a LTQ-FT Ultra (Thermo Scientif) mass spectrometer, analyses were performed using 40V capillary voltage and 120V tube lens voltage. MS/MS was operated in a data-dependent acquisition (DDA) mode and in selected reaction monitoring (SRM) mode. Survey MS scans were acquired in the FT with the resolution (defined at 400 m/z) set to 100,000. Up to six of the most intense ions per scan were fragmented and detected in the linear ion trap. The ion count target value was 1,000,000 for the survey scan and 50,000 for the MS/MS scan. Target ions already selected for MS/MS were dynamically excluded for 30 s. For SRM, maximum injective was set to 400 ms and 2 microscans average.
Data are represented as XIC (extracted ion chromatogram) peak areas of parallel reaction monitoring (PRM) transitions, using QuanBrowser (Xcalibur software 2.0SR2).

Cre-ER^T2 fusion protein = molecular target: T3, Cre-ER^T2 fusion protein (Homo sapiens, UniProt P03372, G400V/L544A/M543A/V595A); experiment: In vivo gene recombination in UbCre-ER^T2; mTmG mice (EGFP immunohistochemistry); parameters: species or system mouse
T3 construct: Cre recombinase (fusion partner); tissue Jax Stock: 008085; host or cells: liver of transgenic UbCre-ER^T2; mTmG mice (transgene product); the other entry of the earlier key: cre (P06956, Recombinase cre)
Procedure: Using the UbCre-ER^T2; mTmG mice described in example 6, we treated these animals with the prodrug of formula VII at 1 or 5 μmol (approximately 0.6 or 3 mg, respectively) or with a vehicle control (oil). Five days after treatment, mice were sacrificed, and the liver was fixed overnight in 10% phosphate-buffered formalin (sigma) and embedded in paraffin, similar to the description of example 3 (FIG. 1).

human ALK5 = molecular target: T4, human ALK5 (Homo sapiens, UniProt P36897); experiment: KinaseProfiler enzymatic activity inhibition; assay type: biochemical; settings: KinaseProfiler, 9-point curve, top 10 μM; read-out: Enzyme activity inhibition IC50 (nM) ALK5 (TGFBR1)
T4 construct: purchased Eurofins (Kinase Profiler service)
T4 sequence (P36897 34-503): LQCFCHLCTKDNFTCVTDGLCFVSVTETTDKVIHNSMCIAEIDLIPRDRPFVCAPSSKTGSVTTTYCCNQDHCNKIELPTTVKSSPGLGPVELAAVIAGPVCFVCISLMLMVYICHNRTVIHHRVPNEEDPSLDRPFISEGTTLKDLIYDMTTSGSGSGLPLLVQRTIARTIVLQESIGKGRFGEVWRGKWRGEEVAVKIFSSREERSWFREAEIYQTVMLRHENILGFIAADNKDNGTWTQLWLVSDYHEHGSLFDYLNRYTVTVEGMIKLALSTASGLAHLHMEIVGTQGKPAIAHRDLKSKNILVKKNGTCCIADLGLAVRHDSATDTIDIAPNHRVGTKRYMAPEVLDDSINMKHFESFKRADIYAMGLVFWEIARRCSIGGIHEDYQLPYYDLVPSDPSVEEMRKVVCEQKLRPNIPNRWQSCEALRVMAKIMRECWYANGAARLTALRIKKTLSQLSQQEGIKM
Procedure: Briefly, human ALK5 was incubated with 8 mM MOPS pH 7.0, 0.2 mM EDTA, 1 mM MnCl2, 2 mg/mL casein, 10 mM MgAcetate and [γ-33P-ATP] (specific activity approx. 500 cpm/pmol, concentration as required). The reaction was initiated by the addition of the MgATP mix. After incubation for 40 minutes at room temperature, the reaction was stopped by the addition of a 3% phosphoric acid solution. 10 μL of the reaction was then spotted onto a P30 filtermat and washed three times for 5 minutes in 75 mM phosphoric acid and once in methanol prior to drying and scintillation counting.
Compounds were tested using a 9-point curve with half-Log serial dilutions. The top concentration tested was 10 μM. Test compounds were prepared in 100% DMSO.

MTO129 liver metastases = experiment: Mouse liver metastasis initiation/formation assay with MTOs; assay type: in vivo; settings: FIG. 13, 1× dose
Source text: Mouse tumor organoids (MTOs) are derived from compound transgenic mice (conditional mutations in Apc, Kras, Trp53 and Tgfbr2, as well as bearing Lgr5-EGFP/CreER^T2) of the C57BL6/J strain and cultured as described in Tauriello et al. 2018 Nature 554(7693): 538-543. doi: 10.1038/nature25492. Organoids are tumor epithelial cells grown in a 3D matrix where they adopt an organotypic architecture, typically as spheroids with a lumen. In this way, cells retain a relatively normal polarity (which means that the outside surface, inside/luminal surface and cell-cell contacts are individually specialized), which is more physiological than in conventional 2D cell culture.
In all experiments described in present invention MTO129 were used (Tauriello et al. Nature. 2018).
In patients, treatment doses were reduced to 80 to 150 mg b.i.d in a regime of 14 days on-14 days off.
MTOs expressing a luciferase reporter were measured by bioluminescence imaging, using retroorbital injection of 50 μl 15 mg/ml D-luciferin potassium salt (Resem BV). Photons per second from the region spanning thorax/abdomen were quantified and normalized to the measure at the day of injection.
Control mice were treated with 150 μl of vehicle.
In the experiment shown in FIG. 13, potency of the indicated compounds to inhibit metastasis formation was assessed. Mice were treatments with indicated compounds started two days after MTO129 transplantation and continued during two weeks. Mice were sacrificed at 4 weeks post transplantation and liver metastases (LiMs) were counted by eye on fixed livers.

[3] = UbC-Cre-ER^T2, mTmG MEFs with LigF-expressing MTO129, 1000 to 1 nM, two days

Compound: 4-hydroxytamoxifen [4-OHT, reference compound]
transcriptional switch (KRT20 up, ASCL2 down) ([1]; HEK293T negative for LigF, 1 μM): able to induce the transcriptional switch
gene recombination in MEFs (fraction EGFP positive) [2, 3]: dose-dependent gene recombination

Compound: CCC(=C(c1ccc(OCCN(C)C)cc1)c1ccc(OCC(=O)c2ccc(O)c(OC)c2)cc1)c1ccccc1 (racemic) [prodrug of formula VII, 2-(4-(1-(4-(2-(dimethylamino)ethoxy)phenyl)-2-phenylbut-1-en-1-yl)phenoxy)-1-(4-hydroxy-3-methoxyphenyl)ethan-1-one]
transcriptional switch (KRT20 up, ASCL2 down) ([1]; HEK293T-LigF, 10 μM): achieved the same response
gene recombination in MEFs (fraction EGFP positive) [2, 3]: very similar to 4-OHT
gene recombination in MEFs (fraction EGFP positive) ([2]; without LigF etherase (printed: MEFs lacking UbC-ER^T2)): only some recombination at the highest dose
cleavage plateau (LigF; 50 μM, 15 μg/ml LigF): 50%
time to half way to the plateau (LigF; 50 μM, 15 μg/ml LigF): 3 h
time to reach cleavage plateau (LigF; 50 μM, 15 μg/ml LigF): approximately 30 hours
stability in control without LigF (LigF; all other components present): remained intact
gene recombination and EGFP expression in liver (Cre-ER^T2 fusion protein; 1 or 5 μmol, five days after treatment): dose-dependent activation of gene recombination and EGFP expression
gene recombination in peripheral tissues compared to the liver (Cre-ER^T2 fusion protein; Example 7 mouse treatment): lower

Compound: COc1cc(C(=O)COc2ccc3nccc(-c4c(-c5cccc(C)n5)nn5c4CCC5)c3c2)ccc1O [prodrug of formula III, 1-(4-hydroxy-3-methoxyphenyl)-2-((4-(2-(6-methylpyridin-2-yl)-5,6-dihydro-4H-pyrrolo[1,2-b]pyrazol-3-yl)quinolin-6-yl)oxy)ethan-1-one]
IC50 (human ALK5): 836 nM

Compound: Cc1cccc(-c2nn3c(c2-c2ccnc4ccc(OC(=O)N5CCC(N6CCCCC6)CC5)cc24)CCC3)n1 [prodrug of formula IV, 4-(2-(6-methylpyridin-2-yl)-5,6-dihydro-4H-pyrrolo[1,2-b]pyrazol-3-yl)quinolin-6-yl [1,4′-bipiperidine]-1′-carboxylate]
IC50 (human ALK5): 2280 nM
activity in preventing liver metastasis formation, in words (MTO129 liver metastases): more robustly than galunisertib

Further lines, results first:

IC50 (human ALK5): 320 nM
Compound: Oc1ccc2c(-c3c(-c4ccccn4)nn4c3CCC4)ccnc2c1 [Reference compound 337, 4-(2-pydridin-2-yl-5,6-dihydro-4H-pyrrolo[1,2-b]pyrazol-3-yl)-quinolin-7-ol, reference compound]

IC50 (human ALK5): 371 nM
Compound: Cc1cccc(-c2nn3c(c2-c2ccnc4cc(O)ccc24)CCC3)n1 [Reference compound 338, 4-[2-(methyl-pyridin-2-yl) 5,6-dihydro-4H-pyrrolo[1,2-b]pyrazol-3-yl]-quinolin-7-ol, reference compound]
